# Experimental data published in patent US20080051416A1, “Novel Compounds” (SMITHKLINE BEECHAM CORPORATION, priority 2004, published 2008).
# Key:
# p38 = p38 (Homo sapiens, UniProt Q16539); assay: Fluorescence Anisotropy Kinase Binding Assay; details: p38 enzyme 12 nM, fluorescent ligand 5 nM
# Protocol: Fluorescence Anisotropy Kinase Binding Assay
# The concentration of kinase enzyme should preferably be ≧1×Kf. The concentration of fluorescent ligand required will depend on the instrumentation used, and the fluorescent and physicochemical properties. The concentration used must be lower than the concentration of kinase enzyme, and preferably less than half the kinase enzyme concentration. A typical protocol is:
# All components dissolved in Buffer of final composition 62.5 mM HEPES, pH 7.5, 1.25 mM CHAPS, 1.25 mM DTT, 12.5 mM MgCl2 3.3% DMSO.
# p38 Enzyme concentration: 12 nM
# Fluorescent ligand concentration: 5 nM
# Test compound concentration: 0.1 nM-100 uM
# Components incubated in 30 ul final volume in NUNC 384 well black microtitre plate until equilibrium reached (5-30 mins)
# Fluorescence anisotropy read in LJL Acquest.
# Definitions: Ki=dissociation constant for inhibitor binding
# • Kf=dissociation constant for fluorescent ligand binding
# The fluorescent ligand is the following compound: [drawing 22] which is derived from 5-[2-(4-aminomethylphenyl)-5-pyridin-4-yl-1H-imidazol-4-yl]-2-chlorophenol and rhodamine green. Results
# [1] = tested on: TGF-β-induced increases in fibronectin and thrombospondin; details: literature, Laping et al., 2002; cited from earlier work
# Recombinant human p38α = molecular target: T1, Recombinant human p38α (Homo sapiens, UniProt Q16539); assay: HTRF Assay: Time-Resolved Fluorescence Resonance Energy Transfer Kinase Assay; assay type: biochemical; details: TR-FRET; MKK6-activated p38α 100 pM, biotinylated-GST-ATF2 substrate
# T1 construct: His; made in house
# Protocol: Time-Resolved Fluorescence Resonance Energy Transfer Kinase Assay
# Recombinant human p38α was expressed as a His-tagged protein. To activate this protein, 3 μM unactivated p38α was incubated in 200 mM Hepes pH7.4, 625 mM NaCl, 1 mM DTT with 27 nM active MKK6 (Upstate), 1 mM ATP and 10 mM MgCl2. The activity of the MKK6-activated p38α was assessed using a time-resolved fluorescence resonance energy transfer (TR-FRET) assay.
# Biotinylated-GST-ATF2 (residues 19-96, 400 nM final), ATP ([…] final) and MgCl2 (5 mM final) in assay buffer (40 mM HEPES pH 7.4, 1 mM DTT) were added to wells containing […] of various concentrations of compound or DMSO vehicle (3% final) in NUNC 384 well black plate. The reaction was initiated by the addition of MKK6-activated p38 (100 pM final) to give a total volume of 30 μl. Alternatively, various concentrations of compound were incubated with activated p38 for up to 90 min, followed by initiation with the addition of ATF2, ATP and MgCl2. The reaction was incubated for 120 minutes at room temperature, then terminated by the addition of 15 μl of 100 mM EDTA pH 7.4. Detection reagent (15 μl) in buffer (100 mM HEPES pH 7.4, 150 mM NaCl, 0.1% w/v BSA, 1 mM DTT) containing antiphosphothreonine-ATF2-71 polyclonal antibody (Cell Signalling Technology, Beverly Mass., USA) labelled with W-1024 europium chelate (Wallac OY, Turku, Finland), and APC-labelled streptavidin (Prozyme, San Leandro, Calif., USA) was added and the reaction was further incubated for 60 minutes at room temperature. The degree of phosphorylation of GST-ATF2 was measured using a Packard Discovery plate reader (Perkin-Elmer Life Sciences, Pangbourne, UK) as a ratio of specific 665 nm energy transfer signal to reference europium 620 nm signal. Differences in IC50 with or without preincubation of enzyme with compound was interpreted as time-dependence.
# Chain of p38 (Q16539 whole entry): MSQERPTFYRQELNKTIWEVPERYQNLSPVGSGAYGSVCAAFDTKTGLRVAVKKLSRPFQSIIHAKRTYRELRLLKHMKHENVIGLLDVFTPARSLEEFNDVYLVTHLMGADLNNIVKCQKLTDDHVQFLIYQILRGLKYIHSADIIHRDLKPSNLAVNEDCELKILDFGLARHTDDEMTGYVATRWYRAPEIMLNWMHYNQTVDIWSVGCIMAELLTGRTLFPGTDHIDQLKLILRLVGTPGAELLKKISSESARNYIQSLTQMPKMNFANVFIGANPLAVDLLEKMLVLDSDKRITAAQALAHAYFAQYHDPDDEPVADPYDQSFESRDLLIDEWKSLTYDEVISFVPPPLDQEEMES
# T1 sequence (Q16539 whole entry): as above
IC50 (p38),melting point,IC50 (Recombinant human p38α),Structure (SMILES),inhibition of TGF-β-induced increases in fibronectin and thrombospondin [1]
> 15.8 µM,,,"COC(=O)c1cc(C(=O)NCC(C)(C)C)ccc1-c1cc(C(=O)NCCO)ccc1C [Example 78, methyl 4-{[(2,2-dimethylpropyl)amino]carbonyl}-5′-{[(2-hydroxyethyl)amino]carbonyl}-2′-methyl-2-biphenylcarboxylate]",
,159 to 164 °C,,"Cc1c(F)cc(C(=O)NCCC(C)C)cc1-c1ccc(C(=O)NCC(C)(C)C)cc1C(=O)Nc1nccs1 [Example 16, N^4-(2,2-dimethylpropyl)-5′-fluoro-6′-methyl-N^3′-(3-methylbutyl)-N^2-1,3-thiazol-2-yl-2,3′,4-biphenyltricarboxamide]",
> 15.8 µM,,> 25.1 µM,"Cc1ccc(C(=O)NCCO)cc1-c1ccc(C(=O)NCC(C)(C)C)cc1C(=O)O [Example 86, 4-{[(2,2-dimethylpropyl)amino]carbonyl}-5′-{[(2-hydroxyethyl)amino]carbonyl}-2′-methyl-2-biphenylcarboxylic acid]",
,> 194 °C (dec.),,"Cc1c(F)cc(C(=O)NCC(C)C)cc1-c1ccc(C(=O)NCC(C)(C)C)cc1C(=O)Nc1nccs1 [Example 14, N^4-(2,2-dimethylpropyl)-5′-fluoro-6′-methyl-N^3′-(2-methylpropyl)-N^2-1,3-thiazol-2-yl-2,3′,4-biphenyltricarboxamide]",
> 15.8 µM,,> 1.58 µM,"Cc1c(F)cc(C(=O)N[C@H](C)CO)cc1-c1ccc(C(=O)NCC(C)(C)C)cc1C(N)=O [Example 75, N^4-(2,2-dimethylpropyl)-5′-fluoro-N^3′-[(1R)-2-hydroxy-1-methylethyl]-6′-methyl-2,3′,4-biphenyltricarboxamide]",

# More lines, now with the values behind:
Structure (SMILES),IC50 (p38),melting point,IC50 (Recombinant human p38α),inhibition of TGF-β-induced increases in fibronectin and thrombospondin [1]
COc1nccc(-c2c(-c3ccc(F)cc3)ncn2C2CCNCC2)n1 [SB-242235],,,,inhibited
"Cc1c(F)cc(C(=O)NCC2CC2)cc1-c1ccc(C(=O)NCC(C)(C)C)cc1C(=O)Nc1nccs1 [Example 15, N^3′-(cyclopropylmethyl)-N^4-(2,2-dimethylpropyl)-5′-fluoro-6′-methyl-N^2-1,3-thiazol-2-yl-2,3′,4-biphenyltricarboxamide]",,179 to 183 °C,,
"Cc1c(F)cc(C(=O)N[C@@H](C)C(C)(C)C)cc1-c1ccc(C(=O)NCC(C)(C)C)cc1C(=O)Nc1nccs1 [Example 25, N^4-(2,2-dimethylpropyl)-5′-fluoro-6′-methyl-N^2-1,3-thiazol-2-yl-N^3′-[(1S)-1,2,2-trimethylpropyl]-2,3′,4-biphenyltricarboxamide]",> 1.58 µM,160 to 165 °C,> 1.58 µM,
"Cc1c(F)cc(C(=O)N[C@H](C)C(C)C)cc1-c1ccc(C(=O)NCC(C)(C)C)cc1C(=O)Nc1nccs1 [Example 13, N^3′-[(1R)-1,2-dimethylpropyl]-N4-(2,2-dimethylpropyl)-5′-fluoro-6′-methyl-N^2-1,3-thiazol-2-yl-2,3′,4-biphenyltricarboxamide]",> 1.58 µM,240 to 244 °C,> 1.58 µM,
"Cc1c(F)cc(C(=O)N[C@@H](C)C(C)C)cc1-c1ccc(C(=O)NCC(C)(C)C)cc1C(=O)Nc1nccs1 [Example 12, N^3′-[(1S)-1,2-dimethylpropyl]-N^4-(2,2-dimethylpropyl)-5′-fluoro-6′-methyl-N^2-1,3-thiazol-2-yl-2,3′,4-biphenyltricarboxamide]",> 1.58 µM,234 to 239 °C,> 1.58 µM,
"Cc1c(F)cc(C(=O)N[C@H](C)C(C)(C)C)cc1-c1ccc(C(=O)NCC(C)(C)C)cc1C(=O)Nc1nccs1 [Example 10, N^4-(2,2-dimethylpropyl)-5′-fluoro-6′-methyl-N^2-1,3-thiazol-2-yl-N^3′-[(1R)-1,2,2-trimethylpropyl]-2,3′,4-biphenyltricarboxamide]",> 1.58 µM,> 125 °C (dec.),> 1.58 µM,
